For 32 compounds, AC50 results are on record in patent publication US20230104936A1, “TRPML MODULATORS” (Casma Therapeutics, Inc., priority 2019, published 2023).

Bounds are passed on as bounds.

For the test, the system named is TFEB. Description: TFEB nuclear translocation assay, HeLa wt cells. Format: cell-based. The note with it: Homo sapiens, HeLa, 2 h, 2 hrs compound treatment, Table 1 does not say HeLa wt or TRPML1 KO. In outline:
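AC50 derived from the ratio of nuclear to perinuclear ring (−5 μm) anti-TFEB immunofluorescence, imaged at ×20 over four fields per well. HeLa wt or TRPML1 KO cells were exposed to compounds for 2 hrs at 37° C, then PFA-fixed and counterstained with Hoechst.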
`CN(C)S(=O)(=O)c1ccc(S(=O)(=O)Nc2ccccc2N2CCC(C3CCCCO3)CC2)cc1` (centres unmarked) [Compound A-435, N1,N1-dimethyl-N4-{2-[4-(oxan-2-yl)piperidin-1-yl]phenyl}benzene-1,4-disulfonamide] displayed an AC50 of at most 2000 nM. As to `CN(C)S(=O)(=O)c1ccc(S(=O)(=O)Nc2ccccc2N2CCC(C)(CO)CC2)cc1` [Compound A-436, N4-{2-[4-(hydroxymethyl)-4-methylpiperidin-1-yl]phenyl}-N1,N1-dimethylbenzene-1,4-disulfonamide], the AC50 lay within 2010 to 8000 nM. As to `CN(C)S(=O)(=O)c1ccc(S(=O)(=O)Nc2ccccc2N2CCC(C3COCCO3)CC2)cc1` (centres unmarked) [Compound A-437, N4-{2-[4-(1,4-dioxan-2-yl)piperidin-1-yl]phenyl}-N1,N1-dimethylbenzene-1,4-disulfonamide], the AC50 lay in the range of 2010 to 8000 nM. With `COCC1(C)CCN(c2ccccc2NS(=O)(=O)c2ccc(S(=O)(=O)N(C)C)cc2)CC1` [Compound A-438, N4-{2-[4-(methoxymethyl)-4-methylpiperidin-1-yl]phenyl}-N1,N1-dimethylbenzene-1,4-disulfonamide], the half-maximal activity concentration (AC50) is at most 2000 nM.

`CN1CC2(CCN(c3ccc(Cl)cc3NS(=O)(=O)c3ccc4c(c3)CCC4)CC2)c2ccc(F)cc21` [Compound A-439, N-(5-chloro-2-{6-fluoro-1-methyl-1,2-dihydrospiro[indole-3,4′-piperidin]-1′-yl}phenyl)-2,3-dihydro-1H-indene-5-sulfonamide] returned a concentration at half-maximal activity (AC50) of at most 2000 nM. In the case of `CN(C)S(=O)(=O)c1ccc(S(=O)(=O)Nc2ccccc2N2CCC3(CC2)COC(C)(C)C3)cc1` [Compound A-440, N4-(2-{3,3-dimethyl-2-oxa-8-azaspiro[4.5]decan-8-yl}phenyl)-N1,N1-dimethylbenzene-1,4-disulfonamide] it was at most 2000 nM; in that of `CN1CCc2ccccc2C12CCN(c1ccccc1NS(=O)(=O)c1ccc(S(C)(=O)=O)cc1)CC2` [Compound A-441, N-(2-(2-methyl-3,4-dihydro-2H-spiro[isoquinoline-1,4′-piperidin]-1′-yl)phenyl)-4-(methylsulfonyl)benzenesulfonamide], 2010 to 8000 nM. `CN(C)S(=O)(=O)c1ccc(S(=O)(=O)Nc2ccccc2N2CCC3(CC2)CN(C(=O)OC2CCOC2)c2cc(F)ccc23)cc1` (centres unmarked) [Compound A-442, oxolan-3-yl 1′-{2-[4-(dimethylsulfamoyl)benzenesulfonamido]phenyl}-6-fluoro-1,2-dihydrospiro[indole-3,4′-piperidine]-1-carboxylate]: the AC50 is at most 2000 nM. With `CC(Nc1ccccc1N1CCC(c2ccc(Cl)cc2F)CC1)c1ccc(S(=O)(=O)N(C)C)cc1` (centres unmarked) [Compound A-443, 4-[1-({2-[4-(4-chloro-2-fluorophenyl)piperidin-1-yl]phenyl}amino)ethyl]-N,N-dimethylbenzene-1-sulfonamide], the AC50 is 2010 to 8000 nM. `COC1(C(=O)N2CCN(c3ccccc3NS(=O)(=O)c3ccc(S(=O)(=O)N(C)C)cc3)CC2)CCCC1` [Compound A-444, N4-{2-[4-(1-methoxycyclopentanecarbonyl)piperazin-1-yl]phenyl}-N1,N1-dimethylbenzene-1,4-disulfonamide] registered an AC50 of at most 2000 nM. In the case of `COC1(C(=O)N2CCN(c3ccccc3NS(=O)(=O)c3ccc(S(=O)(=O)N(C)C)cc3)CC2)CCCCC1` [Compound A-445, N4-{2-[4-(1-methoxycyclohexanecarbonyl)piperazin-1-yl]phenyl}-N1,N1-dimethylbenzene-1,4-disulfonamide] it was at most 2000 nM; in that of `CN(C)S(=O)(=O)c1ccc(S(=O)(=O)Nc2ccccc2N2CCN(C(=O)C(C)(F)F)CC2)cc1` [Compound A-446, N4-{2-[4-(2,2-difluoropropanoyl)piperazin-1-yl]phenyl}-N1,N1-dimethylbenzene-1,4-disulfonamide], 2010 to 8000 nM; in that of `CN(C)S(=O)(=O)c1ccc(S(=O)(=O)Nc2ccccc2N2CCN(C(=O)N3CC4CC3C4)CC2)cc1` [Compound A-447], 2010 to 8000 nM. The figure for `CN(C)S(=O)(=O)c1ccc(S(=O)(=O)Nc2ccccc2N2CCN(C(=O)C3(C)CCCCO3)CC2)cc1` (centres unmarked) [Compound A-448, N1,N1-dimethyl-N4-{2-[4-(2-methyloxane-2-carbonyl)piperazin-1-yl]phenyl}benzene-1,4-disulfonamide] is at most 2000 nM; for `CN(C)S(=O)(=O)c1ccc(S(=O)(=O)Nc2ccccc2N2CCN(C3CCCOC3)CC2)cc1` (centres unmarked) [Compound A-450, N1,N1-dimethyl-N4-{2-[4-(oxan-3-yl)piperazin-1-yl]phenyl}benzene-1,4-disulfonamide] it is 8010 to 9990 nM. For `CCC1(N2CCOCC2)CCN(c2ccccc2NS(=O)(=O)c2ccc(S(=O)(=O)N(C)C)cc2)CC1` [Compound A-451, N4-{2-[4-ethyl-4-(morpholin-4-yl)piperidin-1-yl]phenyl}-N1,N1-dimethylbenzene-1,4-disulfonamide], the AC50 was at most 2000 nM.

Compound `CCC1(N2CCCC2)CCN(c2ccccc2NS(=O)(=O)c2ccc(S(=O)(=O)N(C)C)cc2)CC1` [Compound A-452, N4-{2-[4-ethyl-4-(pyrrolidin-1-yl)piperidin-1-yl]phenyl}-N1,N1-dimethylbenzene-1,4-disulfonamide] gave an AC50 of 8010 to 9990 nM.

`CN(C)S(=O)(=O)c1ccc(S(=O)(=O)Nc2ccccc2N2CCN(C3CCCC3)CC2)cc1` [Compound A-453, N4-[2-(4-cyclopentylpiperazin-1-yl)phenyl]-N1,N1-dimethylbenzene-1,4-disulfonamide] came in with an AC50 of 2010 to 8000 nM. The figure for `COC1(C)CCN(c2ccccc2NS(=O)(=O)c2ccc(S(=O)(=O)N(C)C)cc2)CC1` [Compound A-454, N4-[2-(4-methoxy-4-methylpiperidin-1-yl)phenyl]-N1,N1-dimethylbenzene-1,4-disulfonamide] is at most 2000 nM; for `CCC(C)(C)N1CCN(c2ccccc2NS(=O)(=O)c2ccc(S(=O)(=O)N(C)C)cc2)CC1` [Compound A-455, N1,N1-dimethyl-N4-{2-[4-(2-methylbutan-2-yl)piperazin-1-yl]phenyl}benzene-1,4-disulfonamide] it is 2010 to 8000 nM. In the case of `CC(N1CCN(c2ccccc2NS(=O)(=O)c2ccc(S(=O)(=O)N(C)C)cc2)CC1)C(F)(F)F` (centres unmarked) [Compound A-456, N1,N1-dimethyl-N4-{2-[4-(1,1,1-trifluoropropan-2-yl)piperazin-1-yl]phenyl}benzene-1,4-disulfonamide] it was at most 2000 nM; in that of `CC(C)Oc1ccc(S(=O)(=O)Nc2cccc(Cl)c2N2CCOCC2)cc1` [Compound A-457, N-[3-chloro-2-(morpholin-4-yl)phenyl]-4-(propan-2-yloxy)benzene-1-sulfonamide], 2010 to 8000 nM. In the case of `COC1(C(=O)N2CCN(c3ccccc3NS(=O)(=O)c3ccc(S(=O)(=O)N(C)C)cc3)CC2)CCC1` [Compound A-458, N4-{2-[4-(1-methoxycyclobutanecarbonyl)piperazin-1-yl]phenyl}-N1,N1-dimethylbenzene-1,4-disulfonamide] it was 2010 to 8000 nM; in that of `CN(C)S(=O)(=O)c1ccc(S(=O)(=O)Nc2ccccc2N2CCN(C(=O)C3CCCC3(F)F)CC2)cc1` (centres unmarked) [Compound A-459, N4-{2-[4-(2,2-difluorocyclopentanecarbonyl)piperazin-1-yl]phenyl}-N1,N1-dimethylbenzene-1,4-disulfonamide], 2010 to 8000 nM. As to `CN(C)S(=O)(=O)c1ccc(S(=O)(=O)Nc2ccccc2N2CCN(C(=O)C34CCC(CC3)C4)CC2)cc1` [Compound A-460, N4-[2-(4-{bicyclo[2.2.1]heptane-1-carbonyl}piperazin-1-yl)phenyl]-N1,N1-dimethylbenzene-1,4-disulfonamide], the AC50 is at most 2000 nM. In the case of `CN(C)S(=O)(=O)c1ccc(S(=O)(=O)Nc2ccccc2N2CCN(C(=O)C3(F)CC3)CC2)cc1` [Compound A-461, N4-{2-[4-(1-fluorocyclopropanecarbonyl)piperazin-1-yl]phenyl}-N1,N1-dimethylbenzene-1,4-disulfonamide] it was 2010 to 8000 nM. With `CN(C)S(=O)(=O)c1ccc(S(=O)(=O)Nc2ccccc2N2CCN(C(=O)C3CC34CC4)CC2)cc1` (centres unmarked) [Compound A-462, N1,N1-dimethyl-N4-[2-(4-{spiro[2.2]pentane-1-carbonyl}piperazin-1-yl)phenyl]benzene-1,4-disulfonamide], the AC50 was in the range of 2010 to 8000 nM. The figure for `CCC1(N2CCN(c3ccccc3NS(=O)(=O)c3ccc(S(=O)(=O)N(C)C)cc3)CC2)COC1` [Compound A-464, N4-{2-[4-(3-ethyloxetan-3-yl)piperazin-1-yl]phenyl}-N1,N1-dimethylbenzene-1,4-disulfonamide] is 2010 to 8000 nM; for `CC(c1ccccc1N1CCN(Cc2ccccc2)CC1)S(=O)(=O)c1ccc(S(=O)(=O)N(C)C)cc1` (centres unmarked) [Compound A-465, 4-((1-(2-(4-benzylpiperazin-1-yl)phenyl)ethyl)sulfonyl)-N,N-dimethylbenzenesulfonamide] it is at most 2000 nM; for `COCCN1CC2(CCN(c3ccccc3NS(=O)(=O)c3ccc(S(C)(=O)=O)cc3)CC2)c2ccc(F)cc21` [Compound A-466, N-{2-[6-fluoro-1-(2-methoxyethyl)-1,2-dihydrospiro[indole-3,4′-piperidin]-1′-yl]phenyl}-4-methanesulfonylbenzene-1-sulfonamide] it is at most 2000 nM. The figure for `CS(=O)(=O)c1ccc(S(=O)(=O)Nc2ccccc2N2CCC3(CC2)CN(CC2CCCO2)c2cc(F)ccc23)cc1` (centres unmarked) [Compound A-467, N-(2-{6-fluoro-1-[(oxolan-2-yl)methyl]-1,2-dihydrospiro[indole-3,4′-piperidin]-1′-yl}phenyl)-4-methanesulfonylbenzene-1-sulfonamide] is at most 2000 nM; for `CS(=O)(=O)c1ccc(S(=O)(=O)Nc2ccccc2N2CCC3(CC2)CN(CC2CC2(F)F)c2cc(F)ccc23)cc1` (centres unmarked) [Compound A-468, N-(2-{1-[(2,2-difluorocyclopropyl)methyl]-6-fluoro-1,2-dihydrospiro[indole-3,4′-piperidin]-1′-yl}phenyl)-4-methanesulfonylbenzene-1-sulfonamide] it is at most 2000 nM.

Broadly, the AC50 is the midpoint of the concentration-response curve, whichever way the signal moves.
